Assay results published in ChEMBL document CHEMBL4334440, “Osteoclastogenesis Regulation Metabolites from the Coral-Associated Fungus Pseudallescheria boydii TW-1024-3” (J Nat Prod, 2019).
The source made the active and inactive calls. The rule behind the calls is not given here.

How the values were obtained:
[1] = test system: BMDM; test: Cytotoxicity against C57BL/6J mouse Bone marrow macrophage cells assessed as reduction in cell viability at < 10 uM after 48 hrs by CCK-8 assay; assay type: cell-based
[2] = test system: BMDM; test: Effect on RANKL/M-CSF-induced osteoclastogenesis in C57BL/6J mouse Bone marrow macrophage cells assessed as increase in number of osteoclasts at 0.1 to 1 uM compound for every 2 days and measured after 7 days by TRAP staining based light microscopic method; assay type: functional, cell-based
[3] = test system: BMDM; test: Effect on RANKL/M-CSF-induced osteoclastogenesis in C57BL/6J mouse Bone marrow macrophage cells assessed as increase in area of osteoclasts at 0.1 uM compound for every 2 days and measured after 7 days by TRAP staining based light microscopic method; assay type: functional, cell-based
[4] = test system: BMDM; test: Effect on RANKL/M-CSF-induced osteoclastogenesis in C57BL/6J mouse Bone marrow macrophage cells assessed as increase in number of osteoclasts at 1 uM compound for every 2 days and measured after 7 days by TRAP staining based light microscopic method; assay type: functional, cell-based
[5] = test system: BMDM; test: Inhibition of RANKL/M-CSF-induced osteoclastogenesis in C57BL/6J mouse Bone marrow macrophage cells assessed as decrease in area of osteoclasts at 0.1 to 1 uM compound for every 2 days and measured after 7 days by TRAP staining based light microscopic method; assay type: functional, cell-based
[6] = test system: BMDM; test: Inhibition of RANKL/M-CSF-induced osteoclastogenesis in C57BL/6J mouse Bone marrow macrophage cells assessed as decrease in number of osteoclasts at 0.1 to 1 uM compound for every 2 days and measured after 7 days by TRAP staining based light microscopic method; assay type: functional, cell-based
[7] = test system: BMDM; test: Effect on RANKL/M-CSF-induced osteoclastogenesis in C57BL/6J mouse Bone marrow macrophage cells assessed as increase in number of osteoclasts at 0.1 uM compound for every 2 days and measured after 7 days by TRAP staining based light microscopic method; assay type: functional, cell-based

SMILES | Activity [1] | other results
CO[C@@H]1[C@H](O)CC[C@]2(O)C[S+]([O-])[C@@H](CC=C(C)C)[C@](C)(O)[C@@]12O (some centres undefined) | Non-Toxic | –
CO[C@@H]1C(=O)CC[C@]2(O)CO[C@@H](CC=C(C)C)[C@](C)(O)[C@@]12O | Non-Toxic | Activity [2]: Active; Activity [3]: Active
CO[C@@H]1C(=O)CC[C@]2(O)C[S+]([O-])[C@@H](CC=C(C)C)[C@](C)(O)[C@@]12O (some centres undefined) | Non-Toxic | –
C=C1CC[C@@]2(O)C[C@@H]1[C@](C)(O)C(=O)[C@H]2C=C(C)C | Non-Toxic | –
C=C1CC[C@@]2(O)C[C@@H]1[C@@](C)(O)C(=O)[C@H]2C=C(C)C | Non-Toxic | Activity [2]: Active; Activity [3]: Active
CC[C@@H]1O[C@]2(C[C@H](O)C1(C)C)OC(=O)C[C@@H]2NC(C)=O | Non-Toxic | –
CO[C@@H]1C(=O)CC[C@]2(CO2)[C@@]1(O)[C@@]1(C)O[C@@H]1CC=C(C)C [OVALICIN] | Non-Toxic | –
CC(C)=CC[C@H]1O[C@]1(C)[C@]1(CO)OC(=O)CC[C@]1(O)CCl | Non-Toxic | Activity [4]: Active
CO[C@@H]1C(=O)CC[C@](O)(CCl)[C@@]1(O)[C@@]1(C)O[C@@H]1CC=C(C)C | Non-Toxic | inhibition [5]: Active; inhibition [6]: Active
C=C1CCC2(O)CC1C2(C)[C@H](O)CC=C(C)C (some centres undefined) | Non-Toxic | –
CC/C=C\[C@H](O)[C@H](O)C1=C(C)C(=O)[C@]2(O1)C(=O)N[C@@](OC)(C(=O)c1ccccc1)[C@@H]2O [PSEUROTIN A] | Non-Toxic | Activity [7]: Active
